From ChEMBL document CHEMBL1156492, “(R)- and (S)-verapamil differentially modulate the multidrug-resistant protein MRP1” (J Biol Chem, 2007) come the findings set out here.

Common to all, as to format: functional, cell-based
In assay [1] the test system is BHK-21. Kind of assay: Decrease in intracellular glutathione concentration in human MRP1 expressing hamster BHK21 cells. The note with it: Mesocricetus auratus.
Assay [2] concerns BHK-21. Put plainly: Decrease in intracellular glutathione concentration in human MRP1 expressing hamster BHK21 cells at 5 uM. The note with it: Mesocricetus auratus.
Assay [3] deals with BHK-21. Kind of assay: Cytotoxicity against human MRP1 expressing hamster BHK21 cells at 10 to 20 uM by MTT assay. The conditions noted are these: Mesocricetus auratus.
Assay [4] deals with BHK-21. Kind of assay: Cytotoxicity against hamster BHK21 cells by MTT assay. The conditions noted are these: Mesocricetus auratus. For orientation: Formazan colour is commonly taken as a measure of viable cells.
Assay [5] deals with BHK-21. Kind of assay: Cytotoxicity against human MRP1 expressing hamster BHK21 cells after 72 hrs by MTT assay. The conditions noted are these: Mesocricetus auratus, BHK-21, 72 h.
Assay [6] deals with BHK-21. Put plainly: Cytotoxicity against hamster BHK21 cells after 72 hrs by MTT assay. The conditions noted are these: Mesocricetus auratus, BHK-21, 72 h.

The term IC50 denotes the concentration that gives 50% inhibition.

Active and inactive are the calls of the source. The calls are words filed in the database; no cut-off is given here.

For `COc1ccc(CCN(C)CCC[C@@](C#N)(c2ccc(OC)c(OC)c2)C(C)C)cc1OC`, the outcome with BHK-21 [1] and in the assay with BHK-21 [2] was Active.
Take `COc1ccc(CCN(C)CCC[C@](C#N)(c2ccc(OC)c(OC)c2)C(C)C)cc1OC`: the result in the assay on BHK-21 [1] was inactive.
On to `COc1ccc(CCN(C)CCCC(C#N)(c2ccc(OC)c(OC)c2)C(C)C)cc1OC` (racemic), for which the outcome with BHK-21 [3] was Active. In the assay on BHK-21 [4], the outcome was inactive.
In the case of `CC[C@]1(O)C[C@H]2CN(CCc3c([nH]c4ccccc34)[C@@](C(=O)OC)(c3cc4c(cc3OC)N(C=O)[C@H]3[C@@](O)(C(=O)OC)[C@H](OC(C)=O)[C@]5(CC)C=CCN6CC[C@]43[C@@H]65)C2)C1` [VINCRISTINE], the results for the IC50 in the assay on BHK-21 [5] and with BHK-21 [6] were 9.42 nM and 1.51 nM, respectively.
